Among the data in US20220306695A1, “COMPSTATIN ANALOGUES AND THEIR MEDICAL USES” (priority 2019, published 2022) are IC50 values, retold here.

Starred links: 1 amine or outer side, 2 acyl side, 3 side chain; linkers in the order of their positions; H or OH if unused. Positions of bridges follow the written chain, without caps; N, C: chain ends. Non-standard residues stand in square brackets, D forms with d. Residues, ends and D or L forms follow the SMILES beside them. Groups on a side chain read outwards from the residue. *: point of attachment. X1 = O=C(O)CCCCCCCCCCCCCCC(=O)N1CCN(CC(=O)*)CC1; Trp(1-Me) = Cn1cc(C[C@H](N)C(=O)O)c2ccccc21; C18 diacid = O=C(O)CCCCCCCCCCCCCCCCC(=O)*; γGlu = O=C(O)[C@H](CCC(=O)[*:2])N[*:1]; Nva = CCC[C@H](N)C(=O)O; AEEA = NCCOCCOCC(=O)O; Sar = CNCC(=O)O A value given as a limit tells only on which side of the number the result lay.

One may read the IC50 as the concentration that inhibits the measured activity by half.

The subject of the first assay is classical complement pathway. Description: In vitro haemolysis assay (inhibition of classical complement pathway). It counts as cell-based, human. The following applies: Table 3; human serum, sensitized sheep red blood cells; read-out: IC50[nM], in vitro analysis of inhibition of hemolysis. A digest of the protocol: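 Serially diluted compound (9 points) was preincubated 15 min at room temperature with diluted human serum, titrated per batch to give 70-90% maximal haemolysis, in Tris/casein buffer pH 7.4 with Mg2+/Ca2+. Antibody-sensitized sheep erythrocytes were then added for 30 min at 37° C, and the reaction was stopped with EDTA. Haemolysis was read at A405, with IC50 from 4PL fit.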
For `CC[C@H](C)[C@H](NC(C)=O)C(=O)N[C@H]1CSSC[C@@H](C(=O)N[C@H](C(=O)N[C@@H](CCC(=O)O)C(=O)NCC(=O)N[C@@H](CCCCNC(=O)COCCOCCNC(=O)COCCOCCNC(=O)CN2CCN(C(=O)CCCCCCCCCCCCCCC(=O)O)CC2)C(N)=O)[C@@H](C)O)NC(=O)[C@H](CCCNC(=N)N)NC(=O)[C@H](Cc2c[nH]cn2)NC(=O)[C@H](CCC(=O)O)NC(=O)CNC(=O)[C@H](Cc2c[nH]c3ccccc23)NC(=O)[C@H](CC(=O)O)NC(=O)[C@H](CCC(N)=O)NC(=O)[C@H](Cc2c[nH]c3ccccc23)NC(=O)[C@H]([C@@H](C)CC)NC1=O` [Compound 95] (Ac-ICIWQDWGEHRCTEGK([AEEA-AEEA-X1])-NH2; disulfide 2-12), the IC50 was < 500 nM.

As for `CC[C@H](C)[C@@H]1NC(=O)[C@@H](NC(=O)[C@H](Cc2ccc(O)cc2)NC(=O)[C@H](CCC(=O)O)NC(=O)[C@H](CO)NC(C)=O)CSSC[C@@H](C(=O)N(C)CC(=O)N[C@@H](CCC(=O)O)C(=O)NCC(=O)N[C@@H](C)C(=O)N[C@@H](CCCCNC(=O)CC[C@H](NC(=O)CNC(=O)CC[C@H](NC(=O)CCCCCCCCCCCCCCCCC(=O)O)C(=O)O)C(=O)O)C(N)=O)NC(=O)[C@H](CCCNC(=N)N)NC(=O)[C@H](Cc2c[nH]cn2)NC(=O)[C@H](CCC(=O)O)NC(=O)CNC(=O)[C@H](Cc2c[nH]c3ccccc23)NC(=O)[C@H](CC(=O)O)NC(=O)[C@H](CCC(N)=O)NC(=O)[C@H](Cc2cn(C)c3ccccc23)NC1=O` [Compound 112] (Ac-SEYCI[Trp(1-Me)]QDWGEHRC[Sar]EGAK([γGlu-Gly-γGlu-C18 diacid])-NH2; disulfide 4-14), the IC50 is < 500 nM.

Turning to `CC[C@H](C)[C@@H]1NC(=O)[C@@H](NC(=O)[C@H](Cc2ccccc2)NC(=O)[C@H](CCC(=O)O)NC(=O)[C@H](CO)NC(C)=O)CSSC[C@@H](C(=O)N(C)CC(=O)N[C@@H](CCC(=O)O)C(=O)NCC(=O)N[C@@H](CCC(=O)O)C(=O)NCC(=O)NCC(=O)NCC(=O)N[C@@H](CCCCNC(=O)CC[C@H](NC(=O)CNC(=O)CC[C@H](NC(=O)CCCCCCCCCCCCCCCCC(=O)O)C(=O)O)C(=O)O)C(N)=O)NC(=O)[C@H](CCCNC(=N)N)NC(=O)[C@H](Cc2c[nH]cn2)NC(=O)[C@H](CCC(=O)O)NC(=O)CNC(=O)[C@H](Cc2c[nH]c3ccccc23)NC(=O)[C@H](CC(=O)O)NC(=O)[C@H](CCC(N)=O)NC(=O)[C@H](Cc2cn(C)c3ccccc23)NC1=O` [Compound 129] (Ac-SEFCI[Trp(1-Me)]QDWGEHRC[Sar]EGEGGGK([γGlu-Gly-γGlu-C18 diacid])-NH2; disulfide 4-14), the IC50 was < 100 nM.

Consider `CC[C@H](C)[C@H](NC(C)=O)C(=O)N[C@H]1CSSC[C@@H](C(=O)N[C@H](C(=O)NCC(=O)N[C@@H](C)C(=O)N[C@@H](CCC(=O)O)C(=O)N[C@@H](CO)C(N)=O)[C@@H](C)O)NC(=O)[C@H](CCCNC(=N)N)NC(=O)[C@H](Cc2c[nH]cn2)NC(=O)[C@H](C)NC(=O)CNC(=O)[C@H](Cc2c[nH]c3ccccc23)NC(=O)[C@H](CC(=O)O)NC(=O)[C@H](CCC(N)=O)NC(=O)[C@H](Cc2c[nH]c3ccccc23)NC(=O)[C@H]([C@@H](C)CC)NC1=O` [Compound 47] (Ac-ICIWQDWGAHRCTGAES-NH2; disulfide 2-12), for which the IC50 was < 100 nM.

For `CC[C@H](C)[C@@H]1NC(=O)[C@@H](NC(=O)[C@H](Cc2ccc(O)cc2)NC(=O)[C@H](CCC(=O)O)NC(=O)[C@H](CO)NC(C)=O)CSSC[C@@H](C(=O)N(C)CC(=O)N[C@@H](CCC(=O)O)C(=O)N[C@@H](C)C(N)=O)NC(=O)[C@H](CCCNC(=N)N)NC(=O)[C@H](Cc2c[nH]cn2)NC(=O)[C@H](CCC(=O)O)NC(=O)CNC(=O)[C@H](Cc2c[nH]c3ccccc23)NC(=O)[C@H](CC(=O)O)NC(=O)[C@H](CCC(N)=O)NC(=O)[C@H](Cc2cn(C)c3ccccc23)NC1=O` [Compound 71] (Ac-SEYCI[Trp(1-Me)]QDWGEHRC[Sar]EA-NH2; disulfide 4-14), the IC50 was < 100 nM.

Consider `CC[C@H](C)[C@@H]1NC(=O)[C@@H](NC(=O)[C@H](Cc2ccccc2)NC(C)=O)CSSC[C@@H](C(=O)N[C@H](C(N)=O)[C@@H](C)O)NC(=O)[C@H](CCCNC(=N)N)NC(=O)[C@H](Cc2c[nH]cn2)NC(=O)[C@H](CCC(=O)O)NC(=O)CNC(=O)[C@H](Cc2c[nH]c3ccccc23)NC(=O)[C@H](CC(=O)O)NC(=O)[C@H](CCC(N)=O)NC(=O)[C@H](Cc2c[nH]c3ccccc23)NC1=O` [Compound 23] (Ac-FCIWQDWGEHRCT-NH2; disulfide 2-12), for which the IC50 is < 100 nM.

On to `CC[C@H](C)[C@H](NC(C)=O)C(=O)N[C@H]1CSSC[C@@H](C(=O)N[C@H](C(N)=O)[C@@H](C)O)NC(=O)[C@H](CO)NC(=O)[C@H](Cc2c[nH]cn2)NC(=O)[C@H](C)NC(=O)CNC(=O)[C@H](Cc2c[nH]c3ccccc23)NC(=O)[C@H](CC(=O)O)NC(=O)[C@H](CCC(N)=O)NC(=O)[C@H](Cc2c[nH]c3ccccc23)NC(=O)[C@H]([C@@H](C)CC)NC1=O` [Compound 19] (Ac-ICIWQDWGAHSCT-NH2; disulfide 2-12), for which the half-inhibitory concentration (IC50) was < 250 nM.

As for `CC[C@H](C)[C@@H]1NC(=O)[C@@H](NC(=O)[C@H](Cc2ccc(O)cc2)NC(=O)[C@H](C)NC(=O)[C@H](CO)NC(=O)CNC(=O)[C@H](CCC(=O)O)NC(C)=O)CSSC[C@@H](C(=O)N(C)CC(=O)N[C@@H](CCC(=O)O)C(=O)NCC(=O)N[C@@H](CCCCN)C(=O)N[C@@H](CCCCNC(=O)CC[C@H](NC(=O)CNC(=O)CC[C@H](NC(=O)CCCCCCCCCCCCCCCCC(=O)O)C(=O)O)C(=O)O)C(N)=O)NC(=O)[C@H](CCCNC(=N)N)NC(=O)[C@H](Cc2c[nH]cn2)NC(=O)[C@H](CCC(=O)O)NC(=O)CNC(=O)[C@H](Cc2c[nH]c3ccccc23)NC(=O)[C@H](CC(=O)O)NC(=O)[C@H](CCC(N)=O)NC(=O)[C@H](Cc2cn(C)c3ccccc23)NC1=O` [Compound 110] (Ac-EGSAYCI[Trp(1-Me)]QDWGEHRC[Sar]EGKK([γGlu-Gly-γGlu-C18 diacid])-NH2; disulfide 6-16), the half-inhibitory concentration (IC50) was < 250 nM.

The same assay, now with this note: Table 4; valine 3 versus isoleucine 3 pairs; read-out: CP hemolysis IC50.
Consider `CC[C@H](C)[C@H](NC(C)=O)C(=O)N[C@H]1CSSC[C@@H](C(=O)N[C@H](C(N)=O)[C@@H](C)O)NC(=O)[C@H](CO)NC(=O)[C@H](Cc2c[nH]cn2)NC(=O)[C@H](C)NC(=O)CNC(=O)[C@H](Cc2c[nH]c3ccccc23)NC(=O)[C@H](CC(=O)O)NC(=O)[C@H](CCC(N)=O)NC(=O)[C@H](Cc2c[nH]c3ccccc23)NC(=O)[C@H]([C@@H](C)CC)NC1=O` [Compound 19] (Ac-ICIWQDWGAHSCT-NH2; disulfide 2-12), for which the half-inhibitory concentration (IC50) amounted to 140 nM.

The assay is the same for the next values; noted with them: Table 5; different residues at position 3 of Ac-IC(1)XWQDWGEHRC(1)T-NH2; read-out: IC50, CP hemolysis.
On to `CCC[C@@H]1NC(=O)[C@@H](NC(=O)[C@@H](NC(C)=O)[C@@H](C)CC)CSSC[C@@H](C(=O)N[C@H](C(N)=O)[C@@H](C)O)NC(=O)[C@H](CCCNC(=N)N)NC(=O)[C@H](Cc2c[nH]cn2)NC(=O)[C@H](CCC(=O)O)NC(=O)CNC(=O)[C@H](Cc2c[nH]c3ccccc23)NC(=O)[C@H](CC(=O)O)NC(=O)[C@H](CCC(N)=O)NC(=O)[C@H](Cc2c[nH]c3ccccc23)NC1=O` [Norvaline, reference compound] (Ac-IC[Nva]WQDWGEHRCT-NH2; disulfide 2-12), for which the half-inhibitory concentration (IC50) was > 1000 nM.
